The values that follow are results of earlier work, collected in patent US20110251396A1, “Enantiomeric compositions of cicletanine, alone and in combination with other agents, for the treatment of disease” (Gilead Sciences, Inc., priority 2003, published 2011).

Read-outs that look alike come from different tables or passages of the source.

The subject of one data set is hypertensives. The settings on record: fell from 128; 150-200 mg/day cicletanine, over 12 months.
Data set [1] relates to patients whose blood pressure had not been normalized. The following applies: cicletanine 50 and 100 mg per day added; all three groups.
For the next data set, the system named is Dahl salt-sensitive rats. The settings on record: cicletanine treatment.
Data set [2] has as its system patients with type 2 diabetes.
For data set [3], the system named is T-type voltage-gated plasma membrane calcium channels.

Regarding `Cc1ncc2c(c1O)COC2c1ccc(Cl)cc1` (racemic) [cicletanine], in the data set on hypertensives, the average triglyceride levels is 104 mg/dL. For the same compound, the “patients with normalized blood pressure” value in data set [1] is on record as 50%. The “hypoglycemic effect of tolbutamide” value (following 7 days of cicletanine 100 mg per day) is recorded as “did not change”. Besides, the “peak insulin response to tolbutamide” value (single intravenous dose of tolbutamide following 7 days of cicletanine 100 mg per day) is on record as 17.4 mU/L. In the data set on Dahl salt-sensitive rats, the “high-density lipoprotein (HDL) cholesterol” value was “increased” and the “low-density lipoprotein (LDL) cholesterol” value was “significantly decreased”.
As to `CN(C)C(=N)N=C(N)N` [Metformin], the “patients with gastrointestinal side effects” value in data set [2] (diarrhea, nausea, abdominal pain, metallic taste) is 20% to 30%. Also, in data set [2] (first 6 months of treatment), the weight loss is 2 to 3 kg. For the same compound, in data set [2] (monotherapy), the “decrease of low-density lipoprotein (LDL) cholesterol levels” value is given as 10% to 15% and the “decrease of plasma triglyceride levels” value is given as 10% to 15%.
In the case of `COCC(=O)O[C@]1(CCN(C)CCCc2nc3ccccc3[nH]2)CCc2cc(F)ccc2[C@@H]1C(C)C` [mibefradil], in data set [3], the “selectivity for blocking T-type over L-type calcium channels” value is 10 to 50 times.
For the compound `CCCCNC(=O)NS(=O)(=O)c1ccc(C)cc1` [tolbutamide], for the setting “single intravenous dose of tolbutamide alone, before cicletanine administration”, the “peak insulin response to tolbutamide” value is listed as 29.2 mU/L.
